In patent US20230128889A1, “REL/RELA/SPOT SMALL MOLECULES MODULATORS AND SCREENING METHODS” (priority 2020, published 2023):
Residue numbers refer to the chain shown, from its start. In names and notes the source's numbering stands. Like-named read-outs stand apart in the source and are kept apart here.

B1: R249A D272A: RelTt with substitutions R249A and D272A (protein)
chain: MVGADLGLWNRLEPALAYLAPEERAKVREAYRFAEEAHRGQLRRSGEPYITHPVAVAEILAGLQMDADTVAAGLLHDTVEDCGVAPEELERRFGPTVRRIVEGETKVSKLYKLANLEGEERRAEDLRQMFIAMAEDVRIIIVKLADRLHNLRTLEHMPPEKQKRIAQETLEIYAPLAHRLGMGQLKWELEDLSFRYLHPEAFASLSARIQATQEARERLIQKAIHLLQETLARDELLQSQLQGFEVTGAPKHLYSIWKKMEREGKTLEQIYALLAVRVILDPKPAPTRESQALREKQVCYHVLGLVHALWQPIPGRVKDYIAVPKPNGYQSLHTTVIALEGLPLEVQIRTREMHRVAEYGIAAHWLYKEGLTDPEEVKRRVSWLKSIQEWQKEFSSSREFVEAVTKDLLGGRVFVFTPKGRIINLPKGATPVDFAYHIHTEVGHHMVGAKVNGRIVPLSYELQNGEIVEILTSKNAHPSKGWLEFAKTRSAKSKIRQYFRAQERQETLERGQHLLERYLKRRGLPKPTDSQLEEAAKRLSLPPSPEELYLALALNRLTPRQVAEKLYPKALLKPEKPKPQVRNEWGIRLEQDLQAPIRLASCCEPMKGDPILGFVTRGRGVTVHRADCPNLRRLLQGPEADRVIGAYWEGVGGKVVVLEVLAQDRAGLLRDVMQVVAEAGKSALGSETRVLGPLARIRLRLAVQDGEEERILQAVQKVSGVKEARWA
B2: R249A R277A: RelTt with substitutions R249A and R277A (protein)
chain: B1 chain with A272D, R277A
B3: R249A D272A Y329A: RelTt with substitutions R249A, D272A and Y329A (protein)
chain: B1 chain with Y329A
B4: R249A R277A Y329A: RelTt with substitutions R249A, R277A and Y329A (protein)
chain: B1 chain with A272D, R277A, Y329A

Columns and labels:
RelTt^NTD-GDP complex = RelTt^NTD-GDP complex (Thermus thermophilus, UniProt Q5SHL3); assay: ITC, titration into RelTt^NTD-GDP complex; type: binding, T. thermophilus
Experimental: (§1) To directly address the sequential binding hypothesis, we monitored the binding of these nucleotides using Isothermal Titration Calorimetry (ITC). […] However, once the RelTt^NTD-GDP complex is formed, APCPP binds with an affinity of around 50 μM (FIG. 9h and Table 6). The incorporation of both GDP and APCPP is entropically driven (FIG. 11b and Table 6). In the case of the binding of GDP to the SYN-domain, the release of ordered water molecules from the GDP binding cleft is accompanied by the movement of α6-α7 that partially occludes the HD active center and an increase in the enzyme flexibility as observed in the crystal structure. All these structural changes are consistent with entropically driven binding events. […] In addition, it creates an ‘entropy reservoir’ that drives the binding of APCPP with the release of water molecules from the now exposed binding cleft. This supports the notion that GDP must ‘open’ the enzyme to reveal the ATP binding site, as predicted from the analysis of the crystallographic data.

RelTt^NTD = RelTt^NTD (Thermus thermophilus, UniProt Q5SHL3); assay: Isothermal Titration Calorimetry (ITC), titration into RelTt^NTD; type: binding, T. thermophilus
Experimental: as §1

RelTt^NTD-APCPP complex = RelTt^NTD-APCPP complex (Thermus thermophilus, UniProt Q5SHL3); assay: ITC, titration into RelTt^NTD-APCPP complex; type: binding, T. thermophilus
Experimental: as §1

Rel hydrolase (HD) = assay: Inhibition of Rel hydrolase activity: decrease of radioactive (p)ppGpp spot on TLC; type: biochemical; conditions: radioactive (p)ppGpp incubated with enzyme, with vs without compound
Experimental: (§2) As indicated above, the “Yes/No” in the 5th and 6th columns of TABLES A to F indicates whether there is, or respectively is not an inhibition of the synthetase (ST) and/or hydrolase (HD) activity. […] The action of a candidate compound is evaluated based on its effect on the production of (p)ppGpp. Therefore, in order to assess the potential influence of a candidate compound on synthesis activity, the enzyme was mixed with GDP or GTP and radioactive ATP to produce (p)ppGpp in absence or presence of the candidate compound. Subsequently, the reaction is developed by thin layer chromatography (TLC). In an alternative assay that enables determining the effect of a compound on the hydrolysis activity, radioactive (p)ppGpp is incubated with the enzyme and any decrease of the (p)ppGpp spot on TLC is evaluated when the assay is conducted in presence of the compound and compared to control conditions where no candidate compound is added during incubation.

Rel synthetase (ST) = assay: Inhibition of Rel synthetase activity: (p)ppGpp production from GDP or GTP and radioactive ATP, TLC; type: biochemical; conditions: enzyme with GDP or GTP and radioactive ATP, absence or presence of compound
Experimental: as §2

full-length RelTt = assay: ppGpp synthesis (synthase) activity of full-length RelTt and variants, 3H-labeled GDP; type: biochemical, T. thermophilus; set-up: Synthase activity, Substrate: GDP + ATP, RelTt + IC / Synthase activity, Substrate: GDP + ATP, RelTt + IC + tRNA^Val: unit not given here; conditions: 40° C.; for Synthase activity, Substrate: GDP + ATP, RelTt + IC + tRNA^Val: with 70S IC and deacylated tRNA^Val; for Synthase activity, Substrate: GDP + ATP, RelTt + IC: with T. thermophilus 70S IC
Experimental: FIG. 1. Biochemical characterization of full-length RelTt. (a) Hydrolysis activity of 100 nM full-length RelTt was assayed in the presence of 0.5 mM 3H-labeled ppGpp substrate either at 4° C. or 40° C. Synthetic activity of 30 nM full-length RelTt was assayed at 40° C. in the presence of either 1 mM ATP (b) or 1 mM APPNP (c), as well 0.3 mM of 3H-labeled GDP and 0.1 mM ppGpp. As indicated on the figure, the reactions were supplemented with 120 nM T. thermophilus 70S IC(MV) added either alone or in combination with 2 μM deacylated E. coli tRNAVal. All experiments were performed in HEPES:Polymix buffer, pH 7.5, 5 mM Mg^2+, either in the presence (a) or absence (b and c) of 0.5 mM Mn^2+. Error bars represent Standard deviations of the turnover estimates by linear regression.

Sequence of RelTt^NTD (Q5SHL3 entry or part of it): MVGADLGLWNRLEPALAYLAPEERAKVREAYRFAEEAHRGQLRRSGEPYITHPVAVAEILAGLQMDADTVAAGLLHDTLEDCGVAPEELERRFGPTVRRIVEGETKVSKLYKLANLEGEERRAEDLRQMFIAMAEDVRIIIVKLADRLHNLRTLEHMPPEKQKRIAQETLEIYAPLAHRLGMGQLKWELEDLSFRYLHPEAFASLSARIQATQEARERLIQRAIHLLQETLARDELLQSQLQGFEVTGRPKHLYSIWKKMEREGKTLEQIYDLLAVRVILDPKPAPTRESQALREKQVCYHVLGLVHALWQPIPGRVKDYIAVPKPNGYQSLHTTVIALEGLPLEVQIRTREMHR
Sequence of RelTt^NTD-GDP complex (Q5SHL3 entry or part of it, one chain of several): as the sequence (Q5SHL3 entry or part of it) above
Sequence of RelTt^NTD-APCPP complex (Q5SHL3 entry or part of it, one chain of several): as the sequence (Q5SHL3 entry or part of it) above

| Molecule | HD (inhibition of the hydrolase activity) (Rel hydrolase (HD)) | ST (inhibition of the synthetase activity) (Rel synthetase (ST)) | also measured |
| --- | --- | --- | --- |
| Nc1ncnc2c1ncn2[C@@H]1O[C@H](COP(=O)(O)CP(=O)(O)OP(=O)(O)O)[C@@H](O)[C@H]1O [APCPP] |  |  | Kd (RelTt^NTD-GDP complex): 50.4 µM; ΔG (RelTt^NTD-GDP complex): -5.67 ± 0.07 kcal/mol; ΔH (RelTt^NTD-GDP complex): 1.8 ± 1 kcal/mol; −TΔS (RelTt^NTD-GDP complex): -7.5 ± 1 kcal/mol; Kd (RelTt^NTD): does not bind |
| Nc1nc2c(ncn2[C@@H]2O[C@H](COP(=O)(O)OP(=O)(O)O)[C@@H](O)[C@H]2O)c(=O)[nH]1 [GDP] |  |  | Kd (RelTt^NTD-APCPP complex): 24.7 ± 0.9 µM; ΔG (RelTt^NTD-APCPP complex): -6.1 ± 0.1 kcal/mol; ΔH (RelTt^NTD-APCPP complex): 0.4 ± 1 kcal/mol; −TΔS (RelTt^NTD-APCPP complex): -6.5 ± 1 kcal/mol; ΔG (RelTt^NTD): -6.12 ± 0.01 kcal/mol; ΔH (RelTt^NTD): 1.3 ± 1 kcal/mol; −TΔS (RelTt^NTD): -7.6 ± 1 kcal/mol; Kd (RelTt^NTD; read-out: Kd): 23 µM |
| Cc1ccc(Nc2nc(N/N=C/c3cc(Cl)ccc3O)nc(Nc3ccc([N+](=O)[O-])cc3)n2)cc1C [Compound 66] | No | Yes |  |
| Cc1ccc(-n2cnnn2)cc1OCc1nnn[nH]1 [Compound 57] | Yes | No |  |
| O=C1Nc2ccccc2/C1=N/N=C/c1ccc(-c2ccccc2[N+](=O)[O-])o1 [Compound 41] | Yes | Yes |  |
| Cc1cc(OCC(=O)O)c2c(C)c(Cc3ccccc3)c(=O)oc2c1 [Compound 11] | No | Yes |  |
| O=C(CC(C(=O)O)C1CCCO1)NCCc1ccc2c(c1)OCO2 (stereo not shown) [Compound 36] | yes | no |  |
| O=C1Nc2ccccc2/C1=N\c1ccc(O)c([N+](=O)[O-])c1 [Compound 38] | No | Yes |  |
| Cc1nc2cc(CC(=O)N[C@@H]3COCC[C@@H]3OCC(=O)O)ccc2[nH]1 [Compound 28] | Yes | No |  |
| O=C(O)CCNS(=O)(=O)c1ccc2[nH]c(=O)[nH]c2c1 [Compound 25] | Yes | No |  |
| Cc1c(Cc2ccccc2)c(=O)oc2cc(OCc3ccc(C(=O)O)cc3)ccc12 [Compound 15] | No | Yes |  |
| CCN(CC)C(=O)CN1CCN(c2ccc(NC(=O)Cc3ccc(C)cc3)c(C(=O)O)c2)CC1 [Compound 69] | Yes | Yes |  |
| Cc1nc(N)ncc1C(=O)NCc1cccc(-c2nnn[nH]2)c1 [Compound 59] | Yes | No |  |
| O=c1oc2cc(OCc3nnn[nH]3)ccc2cc1-c1ccc2ccccc2c1 [Compound 21] | Yes | Yes |  |
| O=C(O)c1cccc(Nc2ncnc3[nH]cnc23)c1 [Compound 55] | Yes | No |  |
| O=[N+]([O-])c1cccc(CN2CCN(S(=O)(=O)c3ccc4ccccc4c3)CC2)c1 [Compound 5] | Yes | No |  |
| Cc1[nH]c2ccnn2c(=O)c1CC(=O)N(CCC(=O)O)CC1CCCO1 (stereo not shown) [Compound 54] | Yes | No |  |
| COc1ccc(-c2cc3ccc(OCc4nnn[nH]4)cc3oc2=O)cc1 [Compound 12] | No | Yes |  |
| O=[N+]([O-])c1ccc(CSc2nnc(-c3ccccc3F)o2)cc1 [Compound 62] | Yes | No |  |
| O=C1N/C(=N\N=C\c2cccc3ccccc23)SC1Cc1ccccc1[N+](=O)[O-] (stereo not shown) [Compound 24] | Yes | Yes |  |
| B1 |  |  | Synthase activity, Substrate: GDP + ATP, RelTt + IC + tRNA^Val (full-length RelTt): 12.0 ± 2.0; Synthase activity, Substrate: GDP + ATP, RelTt + IC (full-length RelTt): 8.5 ± 1.0 |
| B2 |  |  | Synthase activity, Substrate: GDP + ATP, RelTt (full-length RelTt; enzyme alone, triplicate): 2.6 ± 0.6; Synthase activity, Substrate: GDP + ATP, RelTt + IC + tRNA^Val (full-length RelTt): 10.5 ± 1.8; Synthase activity, Substrate: GDP + ATP, RelTt + IC (full-length RelTt): 8.6 ± 2 |
| B3 |  |  | Synthase activity, Substrate: GDP + ATP, RelTt + IC + tRNA^Val (full-length RelTt): 8.8 ± 0.69; Synthase activity, Substrate: GDP + ATP, RelTt + IC (full-length RelTt): 10.9 ± 3.6 |
| B4 |  |  | Synthase activity, Substrate: GDP + ATP, RelTt + IC + tRNA^Val (full-length RelTt): 5.4 ± 2.1; Synthase activity, Substrate: GDP + ATP, RelTt + IC (full-length RelTt): 4.5 ± 2.3 |
